Assay results reported in US20170127674A1, “MICROPROPAGATION OF ALEXANDRIAN LAUREL (DANAE RACEMOSA L)” (North Carolina A&T State University, priority 2012, published 2017).

What was measured:
Assay type in all cases: in vivo, Danae racemosa L.
Alexandrian laurel seed = assay: In vitro germination of seeds in agar medium containing GA3
Protocol: Seeds were purchased (Gethsemane Garden and Landscape Services, Inc., Greensboro, N.C.) and disinfected in a 20% bleach solution plus 20 drops Tween-20 per liter for 20 minutes and then rinsed immediately 3 times with sterile purified water.
The disinfected seeds were subsequently transferred to test tubes containing agar medium and 10 ppm GA3. The medium pH was adjusted to 5.8 with 1N KOH or 1 N HCl. The culture medium was sterilized by autoclaving at 121° C. (106 kPa) for 20 minutes.
(§1) All cultures described herein were transferred onto fresh media every 4 weeks and incubated in a plant tissue culture grade growth chamber under a 16-h photoperiod and a photo flux density of 37.6±4.8 μmol s^−1m^−2 light per day provided by cool white fluorescent tubes at 23±0.1° C., unless otherwise noted.
The seeds were prepared according to Materials and Methods above.
The micropropagated plantlets were then potted in soil and transferred to a greenhouse.

[1] = tested on: Alexandrian laurel seedlings; assay: Culture of germinated seeds in BA-supplemented Woody Plant Medium
Protocol: All cultures described herein were transferred onto fresh media every 4 weeks and incubated in a plant tissue culture grade growth chamber under a 16-h photoperiod and a photo flux density of 37.6±4.8 μmol s^−1m^−2 light per day provided by cool white fluorescent tubes at 23±0.1° C., unless otherwise noted. At 10 weeks, a group of germinated seeds from Example 1 was removed from agar medium containing GA3 and transferred to a supplemented WPM culture further comprising BA (at 1.0, 2.0, or 3.0 mg/L, respectively 4.44, 8.88, or 13.32 μM).

[2] = tested on: Alexandrian laurel seedlings; assay: Culture of germinated seeds in TDZ-supplemented Woody Plant Medium
Protocol: as §1
At 10 weeks, a group of germinated seeds from Example 1 was removed from agar medium containing GA3 and transferred to a supplemented WPM culture further comprising TDZ (at 1.0, 2.0, or 3.0 mg/L, respectively 4.54, 9.08, or 13.62 μM).

C=C1C[C@]23C[C@@]1(O)CC[C@H]2[C@@]12C=C[C@H](O)[C@@](C)(C(=O)O1)[C@H]2[C@@H]3C(=O)O [GA3, gibberellic acid]
root and shoot growth of germinated seeds (Alexandrian laurel seed; agar medium containing GA3, at 10 weeks (FIG. 1)): a lot of root growth and little shoot growth | seed germination (Alexandrian laurel seed; agar medium with 10 ppm GA3, about 10 weeks): a majority of the seeds had germinated

c1ccc(CNc2ncnc3nc[nH]c23)cc1 [BA, 6-benzylamino purine]
seedling development ([1]; early growth after the initial seed germination in the presence of BA): balanced seedling development by simultaneously promoting shoot growth and slowing down root growth | shoot and root growth of young seedlings compared to Example 1A ([1]; supplemented WPM with BA at 1.0, 2.0 or 3.0 mg/L, about 4 weeks (FIG. 2)): more balanced shoot and root growth

O=C(Nc1ccccc1)Nc1cnns1 [TDZ, [1-phenyl-3-(1,2,3-thidiazol-5-yl)urea]]
appearance of root growth points ([2]; after 50 days of treatment in TDZ supplemented WPM): root growth points began to turn brown | shoots per seed ([2]; early growth after the initial seed germination in the presence of TDZ): 5-10 shoots per seed | shoot formation ([2]; supplemented WPM with TDZ at 1.0, 2.0 or 3.0 mg/L, about 50 days (FIG. 3)): multiple shoots from each seed
